{"source": "paper PMC6268855", "about": "“New Trifluoromethyl Triazolopyrimidines as Anti-Plasmodiumfalciparum Agents” (Molecules, 2012)", "type_in_all_cases": "cell-based", "key": {"[1]": {"system": "Plasmodium falciparum chloroquine-resistant W2 clone", "experiment": "anti-HRP2 test on P. falciparum-infected erythrocytes", "details": "W2 clone", "method": "(§1) Briefly, the parasites were kept as described at 37 °C in human erythrocytes (A^+) in complete medium (RPMI 1640 supplemented with 10% human sera blood group A^+, 2% glutamine, and 7.5% NaHCO3) either in Petri dishes in a candle jar or in 25-cm culture flasks in an environment containing a gas mixture atmosphere (3% O2, 5% CO2 and 91% N2). Before testing, the ring-stage parasites were synchronized by sorbitol; the suspension was adjusted for parasitemia and hematocrit as described below for each test used.\n(§2) The effects of compounds against the W2 P. falciparum blood cultures were evaluated through incorporation of ^3H hypoxanthine (Perkin Elmer, Waltham, MA, USA) by the parasites. Alternatively, compound effects were also examined using monoclonal antibodies to a commercially available parasite histidine and alanine-rich protein (HRP2) (MPFM ICLLAB-55A®, MPFG55P ICLLAB®, Immunology Consultants Laboratory Inc. (ICL), Portland, OR, USA), as described previously. The [3H]-hypoxanthine assay was performed with 1% of parasitemia and 1% of hematocrit, and the level of isotope incorporation was read in a beta-counter (Perkin Elmer). The anti-HRP2 test was performed with 0.05% parasitemia and 1.5% hematocrit, and the quantification of protein was determined using a specific read at 450 nm in a spectrophotometer (SpectraMax340PC^384, Molecular Devices, Sunnyvale, CA, USA). Drug activities were expressed by the half-maximal inhibitory dose (IC50) compared to the drug-free controls and estimated using the curve-fitting software Origin 8.0 (OriginLab Corporation, Northampton, MA, USA)."}, "[2]": {"system": "Plasmodium falciparum chloroquine-resistant W2 clone", "experiment": "[3H]-hypoxanthine incorporation assay on P. falciparum-infected erythrocytes", "details": "Erythrocyte, W2 clone, 1% parasitemia, 1% hematocrit, read-out: IC50 Plasmodium Falciparum Hypoxanthine", "method": "as §1, §2"}, "[3]": {"system": "human hepatoma cell line (HepG2)", "details": "MTT, 24 h incubation", "method": "For in vitro cytotoxicity experiments, the cell monolayer was trypsinized, washed with culture medium, distributed in a flat-bottomed 96-well plate (5 × 10^3 cells/well), and finally incubated for 18 h at 37 °C for cell adherence.\nFor cytotoxicity testing, we used the (3-(4,5-dimethylthiazol-2-yl)-2,5-diphenyltetrazolium bromide (MTT) assay, performed as described in the literature. The HepG2 cell line was incubated with 20 µL of the compounds in different concentrations (200–25 µg/mL) for 24 h in an atmosphere of 5% CO2 at 37 °C.\nFor the MTT assay, which evaluates mitochondrial viability, 20 µL of MTT solution (5 mg/mL) was added, and the plates were incubated for an additional 3 h. After incubation, the supernatant was carefully removed from the wells, followed by addition of 100 µL DMSO with thorough mixing. Optical densities at 570 and 630 nm (background) were determined by an ELISA reader.\nCell viability was expressed as the percentage of control absorbance obtained in untreated cells after subtracting the absorbance from appropriate background. Lastly, the minimum lethal dose for 50% of the cells (MLD50) was determined as previously described in the literature. The ratio between MLD50 and drug activity (IC50) in vitro was used to determine the selectivity index (SI)."}}}
{"smiles": "CCN(CC)CCCC(C)Nc1cc(C)nc2nc(C(F)(F)F)nn12", "note": "(stereo not shown) [Compound 29, 5-Methyl-7-N'-(N,N-diethylpentane-1,4-diamine)-2-(trifluoromethyl)[1,2,4]triazolo[1,5-a]pyrimidine]", "values": [{"measurement": "IC50", "setting": "[1]; Plasmodium falciparum, Erythrocyte, 0.05% parasitemia, 1.5% hematocrit, read-out: IC50 Plasmodium Falciparum Anti-HRP2", "value": "73 ± 17", "unit": "µM"}, {"measurement": "activity class against P. falciparum", "setting": "[1]; class by IC50", "value": "Inactive"}, {"measurement": "IC50", "setting": "[2]", "value": 39.1, "unit": "µM"}, {"measurement": "MDL50 HepG2", "setting": "[3]", "value": ">558", "unit": "µM"}]}
